Measurements as given in patent US20140171319A1, “Aqueous Composition Comprising a Pesticide and a Base Selected from an Alkali Salt of Hydrogencarbonate” (BASF SE, priority 2011, published 2014).

Legend:
[1] = Volatility: loss of dicamba from aqueous tank mix on petri dish; type: physicochemical; conditions: 70° C., 24 h, atmospheric pressure
Description: The volatility was determined by analyzing the loss of material by HLPL at 70° C. after 24 h at atmospheric pressure. A sample of the aqueous tank mix (300 l/ha) was placed on the petri dish with a defined area (corresponding to a desired field application rate, such as 500 g/ha pesticide).
The application rate was 500 g/ha dicamba (free acid), 1000 g/ha potassium glyphosate, 300 g/ha Genamin® T050 (“Ad2”, 300 g/ha Preference® (“Ad3”) and optionally 250, 500 or 1000 g/ha K2CO3. Deionised water (hardness <1° dH) was used to prepare the samples. Dicamba BAPMA refers to the bis(3-aminopropyl)methylamine salt of dicamba.

pH of tank mix = type: physicochemical
Description: The liquid aqueous composition may have a pH value of at least pH 4.0, preferably of at least 6.0, better of at least 7.0, more preferably of at least 7.5, especially preferred of at least 8.0 and in particular of at least 8.5. The liquid aqueous composition may have a pH of up to 13.0, preferably of up to 11.0 and in particular of up to 9.0. The pH value is usually determined at 20° C.

Row | Structure (SMILES) | Loss of dicamba, Loss (wt %) ([1]; 500 g/ha dicamba (free acid), 1000 g/ha potassium glyphosate where Gly-K, deionised water) | pH of tank mix (pH of tank mix; Example 7 tank mix, 500 g/ha dicamba (free acid), deionised water (hardness <1° dH)) | Loss of dicamba, Loss (wt %) ([1]; application rate 500 g/ha dicamba, tank mix 300 l/ha) | pH of tank mix (pH of tank mix; Example 6 tank mix, application rate 500 g/ha dicamba, 300 l/ha)
1 | CN(CCCN)CCCN.COc1c(Cl)ccc(Cl)c1C(=O)O [Dicamba BAPMA, bis(3-aminopropyl)methylamine salt of dicamba] | <1 wt % | 6.3 |  | 
2 | COc1c(Cl)ccc(Cl)c1C(=O)O [Dicamba free acid, dicamba] |  |  | 80 wt % | 3.0
